From US20220017444A1, “BENZ[…] SURFACTANTS” (INDORAMA VENTURES OXIDES LLC, priority 2018, published 2022)

Experiment: Surface tensiometer characterization: critical micelle concentration and surface tension
Assay type: physicochemical
Conditions: surface tensiometer; FIG. 2
From the text: Dibenzhydryl resorcinol ethoxylates produced in Example 2 were characterized using a surface tensiometer to determine critical micelle concentration and surface tension.

Substance: Dibenzhydryl Resorcinol Ethoxylate
- critical micelle concentration: 4 ppm
